PubChem BioAssay AID1963836 (Molecular Pharmacology Branch, DTP, NCI, 2024)

Test system: 857933-349-R-J2-PDC complex spheroid viability
Assay: Anticancer human tumor 857933-349-R-J2-PDC patient-derived colon adenocarcinoma cell line growth inhibition [POLQ]
Conditions: for IC50: curve of first compound; for viability, T/C: stronger effect = lower value
Procedure: Multicellular complex tumor spheroid response to Polymerase (POL) inhibitors (novobiocin, ART-558, RP6685) in combination with a variety of drugs and investigational agents in selected tumor cell lines
The POL inhibitors (novobiocin, ART-558, and RP6685) were evaluated both individually and in combination with standard of care and investigational anticancer small molecules within a complex spheroid model of solid tumors. . Complex spheroids include a stromal component modeled by human endothelial cells (HUVEC) and fibroblasts modeled by human mesenchymal stem cells (MSCs). The concentration ranges selected for each drug and investigational agent were based upon clinically achievable concentrations if the clinical Cmax of the agent was known.
Compounds. The drugs and investigational agents: novobiocin (NSC847541), ART-558 (NSC835418), RP-6685 (NSC848927), peposertib (NSC802822), ceralasertib (NSC780249), elimusertib (NSC800525), camonsertib (NSC841442), AZD-1390 (NSC803789), olaparib (NSC753686), talazoparib (NSC767125), rucaparib (NSC756644), sotorasib (NSC818433), MRTX-1133 (NSC836407), SN-38 (NSC673596), topotecan (NSC609699), epotoside (NSC141540), doxorubicin (NSC123127), gemcitabine (NSC613327), 5-fluorouracil (NSC19893), paclitaxel (NSC125973), vemurafenib (NSC761431), MSA-2 (NSC828583), SN-011 (NSC837082), adavosertib (NSC754352), prexasertib (NSC758257), carboplatin (NSC241240) and oxaliplatin (NSC266046), were obtained from the National Cancer Institute (NCI) Developmental Therapeutics Program Chemical Repository (21). The FDA-approved anticancer drug set is available from the Developmental Therapeutics Program at https://dtp.cancer.gov/organization/dscb/obtaining/. […] The stock solutions were prepared in dimethyl sulfoxide (DMSO, Sigma-Aldrich, St. Louis, MO, cat. D2650), except for the platinum compounds which were prepared in saline (Quality Biological, Gaithersburg, MD, cat. 114-055-101), at 800-fold the tested concentration and stored at -70 degrees C prior to their use. All drugs and investigational agents were tested over a range starting from a high concentration at or near the clinical Cmax and decreasing in half-log increments. If the clinical Cmax for an agent had not been determined, the highest concentration tested was 10 microM, except for SN-38, which was tested at a high concentration of 1 microM.
Cell Culture. All cells were maintained in an incubator at 37 degrees C and 5% CO2 with 95% humidity. The PDC lines were cultured according to standard operating procedures established by the NCI PDMR (https://pdmr.cancer.gov). Table 3 of the manuscript, lists the cell lines along with the number of the three cell types plated to form the mct-spheroids and media for tumor cell growth. After thawing, all PDC lines, except 997537-175-T-J1-PDC and 415267-285-R-J2-PDC, were cultured in Matrigel-coated flasks prepared with a working solution of 1X Ham's F-12 nutrient mix, without supplementation (Thermo Fisher Scientific, cat. 11765054), 100 U/mL penicillin-streptomycin (Thermo Fisher Scientific, cat. 15140122), and 2.5% Matrigel (Corning Inc., Corning, NY, cat. 354248) for the first three passages. The two PDC lines 997537-175-T-J1-PDC and 415267-285-R-J2-PDC were cultured on uncoated flasks. The 857933-349-R-J2-PDC line was cultured in 6C/Colon 1B media containing advanced DMEM/F-12 (Thermo Fisher Scientific, cat. 12634028), 10 mM HEPES (Thermo Fisher Scientific, cat. 15630080), 1X GlutaMAX supplement (Thermo Fisher Scientific, cat. 35050061), 0.1 mg/mL primocin (InvivoGen, San Diego, CA, cat. ant-pm-2), 10% defined fetal bovine serum, heat inactivated (HyClone Laboratories Inc., Logan, UT, cat. SH30070.03HI), 50% L-WRN conditioned media (ATCC, cat. CRL-3276), 1.25 mM N-Acetyl-L-cysteine (Sigma-Aldrich, cat. A9165), 10 mM nicotinamide (Sigma-Aldrich, cat. N0636), 1X B-27 supplement (Thermo Fisher Scientific, cat. 17504044), 1X N-2 supplement (Thermo Fisher Scientific, cat. […]

[1] = second compound 0.0316 µM, first compound 0.0316 µM
[2] = second compound 0.0316 µM, first compound 0.1 µM
[3] = second compound 0.0316 µM, first compound 0.316 µM
[4] = second compound 0.0316 µM, first compound 1 µM
[5] = second compound 0.1 µM, first compound 0.0316 µM
[6] = second compound 0.1 µM, first compound 0.1 µM
[7] = second compound 0.1 µM, first compound 0.316 µM
[8] = second compound 0.1 µM, first compound 1 µM
[9] = second compound 0.316 µM, first compound 0.0316 µM
[10] = second compound 0.316 µM, first compound 0.1 µM
[11] = second compound 0.316 µM, first compound 0.316 µM
[12] = second compound 0.316 µM, first compound 1 µM
[13] = second compound 1 µM, first compound 0.0316 µM
[14] = second compound 1 µM, first compound 0.1 µM
[15] = second compound 1 µM, first compound 0.316 µM
[16] = second compound 1 µM, first compound 1 µM
[17] = second compound 3.16 µM, first compound 0.0316 µM
[18] = second compound 3.16 µM, first compound 0.1 µM
[19] = second compound 3.16 µM, first compound 0.316 µM
[20] = second compound 3.16 µM, first compound 1 µM
[21] = second compound 10 µM, first compound 0.0316 µM
[22] = second compound 10 µM, first compound 0.1 µM
[23] = second compound 10 µM, first compound 0.316 µM
[24] = second compound 10 µM, first compound 1 µM
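Also: spheroids exposed to compounds for seven days before readout.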

COc1ccc([C@@H](O)c2cc(-c3ncnc4cc(N5CCOCC5)ccc34)c(F)cc2Cl)nn1 + Nc1ccc(C#CCN(C(=O)Cc2ncc(C(F)(F)F)cc2C(F)(F)F)c2ccc(F)cc2)nn1
IC50 (second compound 0.0316 µM): > 10 µM | IC50 (second compound 0.1 µM): > 10 µM | IC50 (second compound 0.316 µM): 9.69 µM | IC50 (second compound 1 µM): > 10 µM | IC50 (second compound 3.16 µM): > 10 µM | IC50 (second compound 10 µM): > 10 µM | viability, T/C [1]: 86.3% | viability, T/C [2]: 104% | viability, T/C [3]: 103% | viability, T/C [4]: 92.6% | viability, T/C (second compound 0.0316 µM, first compound 3.16 µM): 77.2% | viability, T/C (second compound 0.0316 µM, first compound 10 µM): 56.2% | viability, T/C [5]: 91.4% | viability, T/C [6]: 100% | viability, T/C [7]: 96.8% | viability, T/C [8]: 84.3% | viability, T/C (second compound 0.1 µM, first compound 3.16 µM): 78.6% | viability, T/C (second compound 0.1 µM, first compound 10 µM): 60.8% | viability, T/C [9]: 84.6% | viability, T/C [10]: 91.2% | viability, T/C [11]: 81.2% | viability, T/C [12]: 94.7% | viability, T/C (second compound 0.316 µM, first compound 3.16 µM): 80.7% | viability, T/C (second compound 0.316 µM, first compound 10 µM): 48.7% | viability, T/C [13]: 96.8% | viability, T/C [14]: 89.3% | viability, T/C [15]: 93.4% | viability, T/C [16]: 76.6% | viability, T/C (second compound 1 µM, first compound 3.16 µM): 84.5% | viability, T/C (second compound 1 µM, first compound 10 µM): 59.6% | viability, T/C [17]: 88.2% | viability, T/C [18]: 95.8% | viability, T/C [19]: 86.5% | viability, T/C [20]: 84.1% | viability, T/C (second compound 3.16 µM, first compound 3.16 µM): 75.3% | viability, T/C (second compound 3.16 µM, first compound 10 µM): 60% | viability, T/C [21]: 99.9% | viability, T/C [22]: 89.8% | viability, T/C [23]: 95.3% | viability, T/C [24]: 76.3% | viability, T/C (second compound 10 µM, first compound 3.16 µM): 76.8% | viability, T/C (second compound 10 µM, first compound 10 µM): 51.6%

C=CCn1c(=O)c2cnc(Nc3ccc(N4CCN(C)CC4)cc3)nc2n1-c1cccc(C(C)(C)O)n1 + Cc1cccc(N(C)C(=O)C2C(O)CCN2c2nc(C)cc(C(F)(F)F)c2C#N)c1
IC50 (second compound 0.0316 µM): > 1 µM | IC50 (second compound 0.1 µM): > 1 µM | IC50 (second compound 0.316 µM): > 1 µM | IC50 (second compound 1 µM): > 1 µM | IC50 (second compound 3.16 µM): > 1 µM | IC50 (second compound 10 µM): > 1 µM | viability, T/C (second compound 0.0316 µM, first compound 0.00316 µM): 103% | viability, T/C (second compound 0.0316 µM, first compound 0.01 µM): 98.2% | viability, T/C [1]: 96.8% | viability, T/C [2]: 112% | viability, T/C [3]: 96.2% | viability, T/C [4]: 79.3% | viability, T/C (second compound 0.1 µM, first compound 0.00316 µM): 99.4% | viability, T/C (second compound 0.1 µM, first compound 0.01 µM): 98.9% | viability, T/C [5]: 88.2% | viability, T/C [6]: 84% | viability, T/C [7]: 99% | viability, T/C [8]: 77.7% | viability, T/C (second compound 0.316 µM, first compound 0.00316 µM): 97.8% | viability, T/C (second compound 0.316 µM, first compound 0.01 µM): 97.2% | viability, T/C [9]: 114% | viability, T/C [10]: 106% | viability, T/C [11]: 93% | viability, T/C [12]: 68.2% | viability, T/C (second compound 1 µM, first compound 0.00316 µM): 92.8% | viability, T/C (second compound 1 µM, first compound 0.01 µM): 91.4% | viability, T/C [13]: 108% | viability, T/C [14]: 103% | viability, T/C [15]: 117% | viability, T/C [16]: 80.9% | viability, T/C (second compound 3.16 µM, first compound 0.00316 µM): 112% | viability, T/C (second compound 3.16 µM, first compound 0.01 µM): 88.9% | viability, T/C [17]: 111% | viability, T/C [18]: 89% | viability, T/C [19]: 94.1% | viability, T/C [20]: 77.8% | viability, T/C (second compound 10 µM, first compound 0.00316 µM): 82.1% | viability, T/C (second compound 10 µM, first compound 0.01 µM): 111% | viability, T/C [21]: 104% | viability, T/C [22]: 87% | viability, T/C [23]: 101% | viability, T/C [24]: 71%
